Reference: US12084459B2, “2-(4-{1-[6-(4-isopropyl-phenyl)-imidazo[2,1-b][1,3,4]thiadiazol-2-yl]-piperidin-4-ylmethyl}-piperazin-1-yl)-ethanol and use thereof” (Urifer Ltd., priority 2020, dated 2024)

Experiment: toxicity in mice: body weight and observations after IP administration
Format: in vivo
Details: for body weight / body weight change (% wt/wt): male mice
How it was run: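 Mice (female where stated) received the test compound intraperitoneally on day 1, dissolved in 20% hydroxypropylcyclodextrane at an administration volume of 10 ml/kg. Toxicity was assessed from body weight, body weight change (% wt/wt) and observations of the animals after administration.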

CC(C)c1ccc(-c2cn3nc(N4CCC(CN5CCN(CCO)CC5)CC4)sc3n2)cc1 [Compound E266, 2-(4-{1-[6-(4-isopropyl-phenyl)-imidazo[2,1-b][1,3,4]thiadiazol-2-yl]-piperidin-4-ylmethyl}-piperazin-1-yl)-ethanol]
body weight (100 mg/kg IP, day 1): 37.4 g
body weight change (% wt/wt) (100 mg/kg IP, day 1): 0%
body weight (100 mg/kg IP, day 2): 38.2 g
body weight change (% wt/wt) (100 mg/kg IP, day 2): 2.1%
body weight (100 mg/kg IP, day 3): 38 g
body weight change (% wt/wt) (100 mg/kg IP, day 3): 1.6%
body weight (100 mg/kg IP, day 4): 37.3 g
body weight change (% wt/wt) (100 mg/kg IP, day 4): −0.3%
body weight (100 mg/kg IP, day 5): 37.9 g
body weight change (% wt/wt) (100 mg/kg IP, day 5): 1.3%
body weight (100 mg/kg IP, day 6): 37.5 g
body weight change (% wt/wt) (100 mg/kg IP, day 6): 0.3%
body weight (100 mg/kg IP, day 7): 37.4 g
body weight change (% wt/wt) (100 mg/kg IP, day 7): 0.0%
body weight (100 mg/kg IP, day 8): 37.5 g
body weight change (% wt/wt) (100 mg/kg IP, day 8): 0.3%
body weight (100 mg/kg IP, day 9): 36.8 g
body weight change (% wt/wt) (100 mg/kg IP, day 9): −1.6%
body weight (100 mg/kg IP, day 10): 37.2 g
body weight change (% wt/wt) (100 mg/kg IP, day 10): −0.5%
body weight (100 mg/kg IP, day 11): 37.3 g
body weight change (% wt/wt) (100 mg/kg IP, day 11): −0.3%
body weight (100 mg/kg IP, day 12): 37.3 g
body weight change (% wt/wt) (100 mg/kg IP, day 12): −0.3%
body weight (100 mg/kg IP, day 13): 37.7 g
body weight change (% wt/wt) (100 mg/kg IP, day 13): 0.8%
body weight (100 mg/kg IP, day 14): 38.1 g
body weight change (% wt/wt) (100 mg/kg IP, day 14): 1.9%
body weight (100 mg/kg IP, day 15): 36.6 g
body weight change (% wt/wt) (100 mg/kg IP, day 15): −2.1%
body weight (200 mg/kg IP, day 1): 37.8 g
body weight change (% wt/wt) (200 mg/kg IP, day 1): 0%
body weight (200 mg/kg IP, day 2): 38.1 g
body weight change (% wt/wt) (200 mg/kg IP, day 2): 0.8%
body weight (200 mg/kg IP, day 3): 38.2 g
body weight change (% wt/wt) (200 mg/kg IP, day 3): 1.1%
body weight (200 mg/kg IP, day 4): 38.3 g
body weight change (% wt/wt) (200 mg/kg IP, day 4): 1.3%
body weight (200 mg/kg IP, day 5): 37.6 g
body weight change (% wt/wt) (200 mg/kg IP, day 5): −0.5%
body weight (200 mg/kg IP, day 6): 38 g
body weight change (% wt/wt) (200 mg/kg IP, day 6): 0.5%
body weight (200 mg/kg IP, day 7): 39.2 g
body weight change (% wt/wt) (200 mg/kg IP, day 7): 3.7%
body weight (200 mg/kg IP, day 8): 39.7 g
body weight change (% wt/wt) (200 mg/kg IP, day 8): 5.0%
body weight (200 mg/kg IP, day 9): 38 g
body weight change (% wt/wt) (200 mg/kg IP, day 9): 0.5%
body weight (200 mg/kg IP, day 10): 37.9 g
body weight change (% wt/wt) (200 mg/kg IP, day 10): 0.3%
body weight (200 mg/kg IP, day 11): 38.2 g
body weight change (% wt/wt) (200 mg/kg IP, day 11): 1.1%
body weight (200 mg/kg IP, day 12): 38.7 g
body weight change (% wt/wt) (200 mg/kg IP, day 12): 2.4%
body weight (200 mg/kg IP, day 13): 37.9 g
body weight change (% wt/wt) (200 mg/kg IP, day 13): 0.3%
body weight (200 mg/kg IP, day 14): 38.8 g
body weight change (% wt/wt) (200 mg/kg IP, day 14): 2.6%
body weight (200 mg/kg IP, day 15): 37.6 g
body weight change (% wt/wt) (200 mg/kg IP, day 15): −0.5%
body weight (400 mg/kg IP, day 1): 40.3 g
body weight change (% wt/wt) (400 mg/kg IP, day 1): 0%
body weight (400 mg/kg IP, day 2): 40 g
body weight change (% wt/wt) (400 mg/kg IP, day 2): −.07%
body weight (400 mg/kg IP, day 3): 41.3 g
body weight change (% wt/wt) (400 mg/kg IP, day 3): 2.5%
body weight (400 mg/kg IP, day 4): 40.8 g
body weight change (% wt/wt) (400 mg/kg IP, day 4): 1.2%
body weight (400 mg/kg IP, day 5): 39.6 g
body weight change (% wt/wt) (400 mg/kg IP, day 5): −1.7%
body weight (400 mg/kg IP, day 6): 40.4 g
body weight change (% wt/wt) (400 mg/kg IP, day 6): 0.2%
body weight (400 mg/kg IP, day 7): 40.5 g
body weight change (% wt/wt) (400 mg/kg IP, day 7): 0.5%
body weight (400 mg/kg IP, day 8): 40.7 g
body weight change (% wt/wt) (400 mg/kg IP, day 8): 1.0%
body weight (400 mg/kg IP, day 9): 39.4 g
body weight change (% wt/wt) (400 mg/kg IP, day 9): −2.2%
body weight (400 mg/kg IP, day 10): 40 g
body weight change (% wt/wt) (400 mg/kg IP, day 10): −0.7%
body weight (400 mg/kg IP, day 11): 39.7 g
body weight change (% wt/wt) (400 mg/kg IP, day 11): −1.5%
body weight (400 mg/kg IP, day 12): 40.1 g
body weight change (% wt/wt) (400 mg/kg IP, day 12): −0.5%
body weight (400 mg/kg IP, day 13): 40.1 g
body weight change (% wt/wt) (400 mg/kg IP, day 13): −0.5%
body weight (400 mg/kg IP, day 14): 40.2 g
body weight change (% wt/wt) (400 mg/kg IP, day 14): −0.2%
body weight (400 mg/kg IP, day 15): 39.3 g
body weight change (% wt/wt) (400 mg/kg IP, day 15): −2.5%
observations after administration (mice, IP administration): a decrease in locomotor and piloererection right after administration were observed, these were reversible and full recovery was observed
